# Values of other authors in patent publication US20110243859A1, “ENCAPSULATING SYSTEM FOR CEST IMAGING WITH CHELATE Q GREATER THAN OR EQUAL TO 2” (GUERBET, priority 2008, published 2011).
# Settings: spherical liposome, maximum accessible concentration inside
row,Compound,Delta shift value [ppm]
1,CC(O)CN1CCN(CC(=O)[O-])CCN(CC(=O)[O-])CCN(CC(=O)[O-])CC1.[Tm+3] (stereo not drawn) [HP-DO3A-Tm],3.5

# Settings: monomeric chelate
row,Value q,Compound
1,2,CC1(N(CC(=O)O)CC(=O)O)CN(CC(=O)O)CCN(CC(=O)O)C1 [AAZTA]
2,3,O=C(O)CN1CCNCCN(CC(=O)O)CCNCC1 [DO2A]
3,2,O=C(O)CN1CCNCCN(CC(=O)O)CCN(CC(=O)O)CC1 [DO3A]
4,2,CC(C(=O)O)N1CCNCCN(C(C)C(=O)O)CCN(C(C)C(=O)O)CC1 (stereo not drawn) [DO3MA]
5,1,O=C(O)CN1CCN(CC(=O)O)CCN(CC(=O)O)CCN(CC(=O)O)CC1 [DOTA]
6,1,CC(O)CN1CCN(CC(=O)O)CCN(CC(=O)O)CCN(CC(=O)O)CC1 (stereo not drawn) [HP-DO3A]
7,2,CC(CN(CC(=O)O)CC(=O)O)N(CC(=O)O)CC(=O)O (stereo not drawn) [MeDTA]
8,2,CC(C(=O)O)N1CCN(C(C)C(=O)O)CCN(C(C)C(=O)O)CC1 (stereo not drawn) [NOTMA]
9,2,NC1C(O)C(N)C(O)C(N)C1O (stereo not drawn) [Taci]
10,3.5,texaphyrin [Tx]

row,Compound,Value q
1,O=C(O)CN1CCN(CC(=O)O)Cc2cccc(n2)CN(CC(=O)O)CC1 [PCTA],2
